In patent US20250161273A1, “PHARMACEUTICAL COMPOSITION COMPRISING DIPHENYLDIAZOLE DERIVATIVES AND METHODS OF USE” (MODAG GMBH, priority 2022, published 2025):
Where two headings read alike, the source gives them in different places.

Assay: phase 1 study in patients with mild to moderate Parkinson's disease (PK, safety)
Format: in vivo, human
Details: for AR AUC (accumulation ratio, geometric mean): AUC(0-tau); for Frel AUC(0-24) / Frel Cmax: Day 9 fed vs Day 7 QD fasted; for concentration at 3 h: po; for Cmax / Tmax / AUC / concentration at 24 h / Tmax at 7 days / half-life at 7 days / half-life / AUC(0-t) / concentration at 12 h / AUC(0-inf): oral; for Cmax: read-out: Cmax (geometric mean); for AUC: read-out: AUC(0-tau) (geometric mean); for AUC(0-inf): read-out: AUC(0-inf) (geometric mean)
Text: Study Title: A Single Part Study to Assess the Safety, Tolerability, Pharmacokinetics and Pharmacodynamics of Multiple Ascending Oral Doses of anle138b, and to Characterize the Effect of Food on the Pharmacokinetics of anle138b in Patients with Mild to Moderate Parkinson's Disease.
This was a two-center, double-blind, randomised, placebo-controlled study that enrolled twenty two (22) participants in cohorts (i.e. regimens) A-C. All completed the study per protocol. After completion of Cohorts A to C it was decided to add Cohorts D and E of 24 subjects. Cohort D expanded sample size of previous dosing regiments 150 mg and 300 mg QD and Cohort E administration of anle138b 300 mg for 28 days, under non fasted conditions.
Drug product used is described in section 1.3, supra, placebo was vehicle in capsule. Subjects were between 50 and 80 years of age with a diagnosis of idiopathic PD as defined by the Movement Disorders Society criteria (either fulfilling criteria for “Clinically Established PD” or for “Clinically Probable PD”). They had to present with Hoehn and Yahr stage I-III (i.e. able to walk unaided), and stable medication for PD for 1 month prior to inclusion and anticipated over the study period. The subjects were randomly assigned to receive one of three drug regimens, A, B or C, as follows: • Regimen A—150 mg (5×30 mg) anle138b oral capsules or matching placebo QD, for 7 consecutive days in the fasted state, followed by a single administration of 150 mg anle138b oral capsule or matching placebo on Day 9 in the fed state, • Regimen B—300 mg (10×30 mg) anle138b oral capsules or matching placebo QD, for 7 consecutive days in the fasted state, followed by a single administration of 300 mg anle138b oral capsule (10×30 mg capsules) or matching placebo on Day 9 in the fed state, • Regimen C—150 mg (5×30 mg) anle138b oral capsules or matching placebo BID (total 300 mg daily), […]
Primary endpoints provided safety and tolerability information for the test product by assessing: AEs, vital signs, ECGs, physical examinations and laboratory safety tests, and to provide additional safety and tolerability information for the test product taken also in the fed state by assessing: AEs, vital signs, ECGs, physical examinations and laboratory safety tests.
Secondary endpoints provided PK information for the test product in PD patients by assessing plasma exposure under fast and fed conditions.

[1] = PD patients, Regimen A 150 mg, Day 1, fasted
[2] = PD patients, Regimen B 300 mg, Day 1, fasted

Brc1cccc(-c2cc(-c3ccc4c(c3)OCO4)n[nH]2)c1 [anle138b, 3-(1,3-benzodioxol-5-yl)-5-(3-bromophenyl)-1H-pyrazole]
AR Cmax (accumulation ratio, geometric mean) (PD patients, Regimen A 150 mg QD, Day 7): 0.346
AR AUC (accumulation ratio, geometric mean) (PD patients, Regimen A 150 mg QD, Day 7, tau 24 h): 0.371
T1/2, individual subject values (PD patients, Regimen A 150 mg QD, Day 7, n = 2): 16.25 h
maximum individual AUC(0-24) as % of the exposure limit in the protocol [1]: ~6.19%
maximum individual Cmax as % of the exposure limit in the protocol [1]: approximately 24.9%
Frel AUC(0-24) (PD patients, Regimen A 150 mg): 132%
Frel Cmax (PD patients, Regimen A 150 mg): 104%
Tmax (median) (PD patients, Regimen B 300 mg QD (row prints fed, title fasted state), Day 7): 1.6 h
AR Cmax (accumulation ratio, geometric mean) (PD patients, Regimen B 300 mg QD, Day 7): 0.428
AR AUC (accumulation ratio, geometric mean) (PD patients, Regimen B 300 mg QD, Day 7, tau 24 h): 0.351
maximum individual AUC(0-24) as % of the exposure limit in the protocol [2]: ~8.4%
maximum individual Cmax as % of the exposure limit in the protocol [2]: ~75.8%
Frel AUC(0-24) (PD patients, Regimen B 300 mg): 109%
Frel Cmax (PD patients, Regimen B 300 mg): 71.4%
maximum individual Cmax as % of the exposure limit in the protocol (PD patients, Regimen C 150 mg BID, Day 1, fasted): ~26.4%
maximum individual AUC as % of the exposure limit in the protocol (PD patients, Regimen C 150 mg BID, Day 1, fasted, AUC(0-12) vs limit based on AUC(0-24)): ~4.94%
AR Cmax (accumulation ratio, geometric mean) (PD patients, Regimen C 150 mg BID, Day 7): 0.333
AR AUC (accumulation ratio, geometric mean) (PD patients, Regimen C 150 mg BID, Day 7, tau 12 h): 0.299
safety and tolerability (in words) (PD patients, doses up to 300 mg): safe and well tolerated
concentration at 3 h (human, CSF, 300 mg, PD patients, multiple QD oral doses of 300 mg, fasted, 3 h post-dose on Day 5, read-out: CSF anle138b concentration (geometric mean)): 0.319 ng/mL
Kp at 3 h (human, CSF/plasma, PD patients, multiple QD oral doses of 300 mg, fasted, 3 h post-dose on Day 5, read-out: CSF/plasma anle138b concentration ratio (geometric mean)): 0.0024
Cmax (human, plasma, 150 mg, PD patients, Regimen A 150 mg QD (row prints fed, title fasted state), Day 1): ~462 ng/mL
Tmax (human, plasma, 150 mg, PD patients, Regimen A 150 mg QD (row prints fed, title fasted state), Day 1, read-out: Tmax (median)): 1.25 h
Tmax (human, plasma, 150 mg, PD patients, Regimen A 150 mg QD (row prints fed, title fasted state), Day 1, read-out: Tmax (range)): 1 to 1.5 h
AUC (human, plasma, 150 mg, PD patients, Regimen A 150 mg QD (row prints fed, title fasted state), Day 1, tau 24 h): ~1040 ng·h/mL
concentration at 24 h (human, plasma, 150 mg, PD patients, Regimen A 150 mg QD (row prints fed, title fasted state), Day 1, tau 24 h, read-out: Ctau (geometric mean)): 3.76 ng/mL
Cmax (human, plasma, 150 mg, PD patients, Regimen A 150 mg QD (row prints fed, title fasted state), Day 7): ~160 ng/mL
Tmax at 7 days (human, plasma, 150 mg, PD patients, Regimen A 150 mg QD (row prints fed, title fasted state), Day 7, read-out: Tmax (median)): 1 h
Tmax at 7 days (human, plasma, 150 mg, PD patients, Regimen A 150 mg QD (row prints fed, title fasted state), Day 7, read-out: Tmax (range)): 1 to 2 h
AUC (human, plasma, 150 mg, PD patients, Regimen A 150 mg QD (row prints fed, title fasted state), Day 7, tau 24 h): ~388 ng·h/mL
concentration at 24 h (human, plasma, 150 mg, PD patients, Regimen A 150 mg QD (row prints fed, title fasted state), Day 7, tau 24 h, read-out: Ctau (geometric mean)): 1.86 ng/mL
half-life at 7 days (human, plasma, 150 mg, PD patients, Regimen A 150 mg QD, Day 7, n = 2, read-out: T1/2, individual subject values (converted)): 17.1 h
half-life (human, plasma, 150 mg, PD patients, Regimen A 150 mg single dose on Day 9, fed state, n = 3, read-out: T1/2 (geometric mean) (converted)): 15.9 h
AUC(0-t) (human, plasma, 150 mg, PD patients, Regimen A 150 mg single dose on Day 9, fed state, read-out: AUC(0-24) (geometric mean)): 513 ng·h/mL
AUC(0-t) (human, plasma, 150 mg, PD patients, Regimen A 150 mg single dose on Day 9, fed state, read-out: AUC(0-last) (geometric mean)): 542 ng·h/mL
concentration at 24 h (human, plasma, 150 mg, PD patients, Regimen A 150 mg single dose on Day 9, fed state, read-out: C24 (geometric mean)): 1.87 ng/mL
Cmax (human, plasma, 150 mg, PD patients, Regimen A 150 mg single dose on Day 9, fed state): 167 ng/mL
Tmax (human, plasma, 150 mg, PD patients, Regimen A 150 mg single dose on Day 9, fed state, read-out: Tmax (median)): 3 h
Tmax (human, plasma, 150 mg, PD patients, Regimen A 150 mg single dose on Day 9, fed state, read-out: Tmax (range)): 1.5 to 4 h
Cmax (human, plasma, 150 mg, PD patients, Regimen C 150 mg BID, fast, Day 1): ~546 ng/mL
Tmax (human, plasma, 150 mg, PD patients, Regimen C 150 mg BID, fast, Day 1, read-out: Tmax (median)): 1 h
Tmax (human, plasma, 150 mg, PD patients, Regimen C 150 mg BID, fast, Day 1, read-out: Tmax (range)): 1 to 2 h
AUC (human, plasma, 150 mg, PD patients, Regimen C 150 mg BID, fast, Day 1, tau 12 h): ~993 ng·h/mL
concentration at 12 h (human, plasma, 150 mg, PD patients, Regimen C 150 mg BID, fast, Day 1, tau 12 h, read-out: Ctau (geometric mean)): 7.41 ng/mL
Cmax (human, plasma, 150 mg, PD patients, Regimen C 150 mg BID, fast, Day 7): ~182 ng/mL
half-life at 7 days (human, plasma, 150 mg, PD patients, Regimen C 150 mg BID, fast, Day 7, read-out: T1/2 (geometric mean) (converted)): 14.1 h
Tmax at 7 days (human, plasma, 150 mg, PD patients, Regimen C 150 mg BID, fast, Day 7, read-out: Tmax (median)): 1 h
Tmax at 7 days (human, plasma, 150 mg, PD patients, Regimen C 150 mg BID, fast, Day 7, read-out: Tmax (range)): 1 to 1.5 h
AUC (human, plasma, 150 mg, PD patients, Regimen C 150 mg BID, fast, Day 7, tau 12 h): ~297 ng·h/mL
concentration at 12 h (human, plasma, 150 mg, PD patients, Regimen C 150 mg BID, fast, Day 7, tau 12 h, read-out: Ctau (geometric mean)): 4.05 ng/mL
half-life (human, plasma, 150 mg, patient, 150 mg once daily for 7 consecutive days, fed conditions as printed, day 7, read-out: T½ of anle138b (clause 14) (converted)): ~11.7 h
Cmax (human, plasma, 300 mg, PD patients, Regimen B 300 mg QD (row prints fed, title fasted state), Day 1): ~933 ng/mL
Tmax (human, plasma, 300 mg, PD patients, Regimen B 300 mg QD (row prints fed, title fasted state), Day 1, read-out: Tmax (median)): 1.5 h
Tmax (human, plasma, 300 mg, PD patients, Regimen B 300 mg QD (row prints fed, title fasted state), Day 1, read-out: Tmax (range)): 1 to 4 h
AUC (human, plasma, 300 mg, PD patients, Regimen B 300 mg QD (row prints fed, title fasted state), Day 1, tau 24 h): ~2500 ng·h/mL
concentration at 24 h (human, plasma, 300 mg, PD patients, Regimen B 300 mg QD (row prints fed, title fasted state), Day 1, tau 24 h, read-out: Ctau (geometric mean)): 6.81 ng/mL
Cmax (human, plasma, 300 mg, PD patients, Regimen B 300 mg QD (row prints fed, title fasted state), Day 7): ~365 ng/mL
Tmax at 7 days (human, plasma, 300 mg, PD patients, Regimen B 300 mg QD (row prints fed, title fasted state), Day 7, read-out: Tmax (median)): 1.5 h
Tmax at 7 days (human, plasma, 300 mg, PD patients, Regimen B 300 mg QD (row prints fed, title fasted state), Day 7, read-out: Tmax (range)): 1 to 2 h
AUC (human, plasma, 300 mg, PD patients, Regimen B 300 mg QD (row prints fed, title fasted state), Day 7, tau 24 h): ~722 ng·h/mL
concentration at 24 h (human, plasma, 300 mg, PD patients, Regimen B 300 mg QD (row prints fed, title fasted state), Day 7, tau 24 h, read-out: Ctau (geometric mean)): 3.19 ng/mL
half-life at 7 days (human, plasma, 300 mg, PD patients, Regimen B 300 mg QD, Day 7, read-out: T1/2 (geometric mean) (converted)): 11.8 h
half-life (human, plasma, 300 mg, PD patients, Regimen B 300 mg single dose on Day 9, fed state, n = 4, read-out: T1/2 (geometric mean) (converted)): 13 h
AUC(0-t) (human, plasma, 300 mg, PD patients, Regimen B 300 mg single dose on Day 9, fed state, read-out: AUC(0-24) (geometric mean)): 795 ng·h/mL
AUC(0-t) (human, plasma, 300 mg, PD patients, Regimen B 300 mg single dose on Day 9, fed state, read-out: AUC(0-last) (geometric mean)): 831 ng·h/mL
concentration at 24 h (human, plasma, 300 mg, PD patients, Regimen B 300 mg single dose on Day 9, fed state, read-out: C24 (geometric mean)): 2.88 ng/mL
Cmax (human, plasma, 300 mg, PD patients, Regimen B 300 mg single dose on Day 9, fed state): 231 ng/mL
Tmax (human, plasma, 300 mg, PD patients, Regimen B 300 mg single dose on Day 9, fed state, read-out: Tmax (median)): 3 h
Tmax (human, plasma, 300 mg, PD patients, Regimen B 300 mg single dose on Day 9, fed state, read-out: Tmax (range)): 3 to 4 h
AUC(0-inf) (human, plasma, PD patients, Regimen A 150 mg single dose on Day 9, fed state, n = 3): 599 ng·h/mL
AUC(0-inf) (human, plasma, PD patients, Regimen B 300 mg single dose on Day 9, fed state, n = 4): 826 ng·h/mL
concentration at 3 h (human, plasma, 300 mg, PD patients, multiple QD oral doses of 300 mg, fasted, 3 h post-dose on Day 5, read-out: plasma anle138b concentration (geometric mean)): 133 ng/mL
